Assays:
[1] = Compound analysis: liver, adipose and plasma concentrations 3 days after a single oral dose; type: in vivo, female C57BL/6 mice; settings: for Adipose % dose / g tissue / liver:adipose ratio (hepatic sequestration criterion 0.3) / Liver % dose / g tissue / Plasma % dose / g tissue / tissue uptake: 3 days after single oral dose; for liver:adipose ratio (hepatic sequestration criterion 0.3): Table 1 doses; for Liver:adipose ratio: based on ng/g tissue, day 3; for tissue uptake: female, C57BL/6, mouse, in vivo
Experimental: (§1) Animals. Eight-week-old female C57BL/6 mice (Harlan laboratories, Venray, the Netherlands) were randomly assigned to treatment groups (six animals per group) and allowed to acclimate for 1.5 weeks. The animals were housed in groups in standard cages and conditions (23 ± 2°C, 50–60% relative humidity, 12-hr dark/light cycle) with free access to food and water. Mice received a single dose of test compound by oral gavage at a dosing volume of 10 mL/kg body weight (BW). Mice treated with corn oil vehicle (10 mL/kg BW) served as controls. For each congener, five different doses were administered, ranging from 0.5–100 μg/kg BW (TCDD) to 5,000–500,000 µg/kg BW (PCB-153). Detailed information on doses is provided in Supplemental Material, Table S1 (http://dx.doi.org/10.1289/ehp.1206336). On day 3 after dosing, animals were euthanized by CO2/O2 asphyxiation, and blood was immediately collected from the abdominal aorta. The liver, thymus, spleen, and adipose tissue were removed, weighed (liver, thymus, and spleen), snap frozen, and stored at –80°C. All animal treatments were performed with permission of the Animal Ethical Committee (DEC Utrecht) and performed according to the [Law on Animal Experiments (1977)]. Animals were treated humanely and with regard for alleviation of suffering.
Compound analysis. Adipose and liver tissues samples were homogenized in Na2SO4, followed by extraction and clean-up in one step, and then eluted with 200 mL 1:1 hexane:dichloromethane on an open column packed with 40% wt/wt H2SO4-impregnated silica and KOH-silica. Blood plasma samples were extracted on an open column using Chem-Elut (Agilent Technologies, Santa Clara, CA, USA) and then NaCl eluted with 75 mL 3:2 hexane:2-propanol. Clean-up was performed using a miniaturized silica column (as described above), and samples were eluted using 30 mL hexane. Because the samples typically contained high levels of the analytes, only a small fraction was evaporated and analyzed. Prior to evaporation, we spiked a fraction of the samples with ^13C-labeled standards. We checked potential loss of analytes during extraction and clean-up by reextracting the samples using the identical protocol used for the samples. […] Tetradecane was added prior to evaporation. Sample analysis followed the U.S. Environmental Protection Agency Method 1613 ([U.S. Environmental Protection Agency 1994]) using single ion monitoring mode on an Agilent 6809N gas chromatograph (Agilent Technologies) coupled with a Micromass Ultima Autospec Ultra high-resolution mass spectrometer (HRMS; Waters Corp., Milford, MA, USA). Compounds were separated on a 60 m × 0.25 mm DB5-MS column ([…]; J&W Scientific, Folsom, CA, USA). The HRMS was operated with electron impact ionization with electron energy of 35 eV and an ion source temperature of 250°C. To reduce the number of analyses, samples were pooled before clean-up. […] This method was used because full congener–specific separation could be achieved on the high-resolution GC–HRMS. For lipid determination, samples were evaporated to dryness after the extraction step, and the amount of lipids was determined gravimetrically. Concentrations were calculated based on lipid weight and wet weight. The analysis of samples for the PCB-118 5,000 μg/kg BW dose failed during the procedure; thus analysis for this group could not be completed.
(§2) Plasma and PBL isolation. Blood from two mice was pooled (total volume of approximately 1.4 mL); plasma and PBLs were then isolated using Ficoll Paque gradient (GE Healthcare Europe, Diegem, Belgium). Plasma samples were stored at –80°C until compound analysis. Isolated lymphocytes were lysed with RLT buffer (QIAGEN, Venlo, the Netherlands) as described in the QIAGEN RNAeasy kit protocol and stored at –80°C until use.

[2] = tested on: Cyp1b1 mRNA in PBLs; test: Cyp1b1 gene expression in peripheral blood lymphocytes; type: in vivo, female C57BL/6 mice; settings: for BMR20TCDD PBLs Cyp1b1 mRNA: 3 days after single oral dose; for REP PBLs Cyp1b1 mRNA: relative to TCDD; for Effect on Cyp1b1 mRNA in PBLs: single oral dose
Experimental: as §1, §2
RNA isolation and quantitative real-time polymerase chain reaction (PCR). Total RNA was isolated from liver and PBLs using a QIAGEN RNeasy kit (QIAGEN). Purity and concentration of the isolated RNA was determined by measuring the absorbance ratio at 260/280 nm and 230/260 nm with a Nanodrop 2000 spectrophotometer (Thermo Scientific, Asheville, NC, USA). RNA was reverse transcribed to complementary DNA (cDNA) using the iScript cDNA synthesis Kit (Bio-Rad, Veenendaal, the Netherlands). Quantitative real-time PCR analyses were performed using the iQ Real-Time PCR Detection System with SYBR green (Bio-Rad). Amplification reactions were set up with […] containing 12.5 μL iQ SYBR Green Supermix (Bio-rad), 0.5 μL distilled H2O, 1 μL (10 μM) forward primer, 1 μL (10 μM) reverse primer, and 10 μL first strand cDNA (10X diluted). Primer sequences were as follows: Cyp1a1: forward-5´-GGTTAACCATGACCGGGAACT-3´ and reverse-5´-TGCCCAAACCAAAGAGAGTGA-3´ ([Schulz et al. 2012]); Cyp1a2: forward-5´-ACATTCCCAAGGAGCGCTGTATCT-3´ and reverse-5´-GTCGATGGCCGAGTTGTTATTGGT-3´ ([Flaveny et al. 2010]); Cyp1b1: forward-5´-GTGGCTGCTCATCCTCTTTACC-3´ and reverse-5´-CCCACAACCTGGTCCAACTC-3´ ([Berge et al. 2004]); β-actin: forward-5´-ATGCTCCCCGGGCTGTAT-3´ and reverse-5´-CATAGGAGTCCTTCTGACCCATTC-3´ ([Schulz et al. 2012]). All primers were run through the National Center for Biotechnology Information Primer-BLAST database (http://www.ncbi.nlm.nih.gov/tools/primer-blast/) to confirm specificity and validate for optimal annealing temperature (60°C for all primers) and efficiency. The efficiency of all primer pairs was 98–102% (tested at 60°C). The following program was used for denaturation and amplification of cDNA: 3 min at 95°C, followed by 40 cycles of 15 sec at 95°C and 45 sec at 60°C. Gene expression for each sample was expressed as threshold cycle (Ct), normalized to the reference gene β-actin (ΔCt). We calculated fold induction relative to the control group.
Data analysis. We obtained concentration–response curves using a sigmoidal dose–response nonlinear regression curve fit with variable slope (GraphPad Prism 6.01; GraphPad Software Inc., San Diego, CA, USA): […]

SMILES	Adipose % dose / g tissue ([1]; oral dose 5 µg/kg bw) [% dose / g tissue]	Adipose % dose / g tissue ([1]; oral dose 25 µg/kg bw) [% dose / g tissue]	Adipose % dose / g tissue ([1]; oral dose 100 µg/kg bw) [% dose / g tissue]	Effect on Cyp1b1 mRNA in PBLs ([2]; day 3)	liver:adipose ratio (hepatic sequestration criterion 0.3) [1]	Liver:adipose ratio ([1]; dose 15,000 μg/kg BW)	Liver:adipose ratio ([1]; dose 50,000 μg/kg BW)	Adipose % dose / g tissue ([1]; oral dose 15000 µg/kg bw) [% dose / g tissue]	Liver % dose / g tissue ([1]; oral dose 15000 µg/kg bw) [% dose / g tissue]	Plasma % dose / g tissue ([1]; oral dose 15000 µg/kg bw) [% dose / g tissue]	Adipose % dose / g tissue ([1]; oral dose 50000 µg/kg bw) [% dose / g tissue]	Liver % dose / g tissue ([1]; oral dose 50000 µg/kg bw) [% dose / g tissue]	Plasma % dose / g tissue ([1]; oral dose 50000 µg/kg bw) [% dose / g tissue]	Liver % dose / g tissue ([1]; oral dose 150000 µg/kg bw) [% dose / g tissue]	Plasma % dose / g tissue ([1]; oral dose 150000 µg/kg bw) [% dose / g tissue]	Plasma % dose / g tissue ([1]; oral dose 500000 µg/kg bw) [% dose / g tissue]	Liver:adipose ratio ([1]; dose 5,000 μg/kg BW)	tissue uptake ([1]; oral dose 5000 µg/kg bw) [%ID/g]	Adipose % dose / g tissue ([1]; oral dose 5000 µg/kg bw) [% dose / g tissue]	Liver % dose / g tissue ([1]; oral dose 5000 µg/kg bw) [% dose / g tissue]	further results
Clc1cc2oc3c(Cl)c(Cl)c(Cl)cc3c2cc1Cl [Congener 4-PeCDF, 2,3,4,7,8-pentachlorodibenzofuran]	3.4	3.0	3.5	dose-dependently induced																	BMR20TCDD PBLs Cyp1b1 mRNA ([2]; dose metric Adm dose): 514 µg/kg BW; BMR20TCDD PBLs Cyp1b1 mRNA ([2]; dose metric Syst plasma): 212 ng/g lipid; REP PBLs Cyp1b1 mRNA ([2]; dose metric Adm dose (µg/kg BW)): 0.04; REP PBLs Cyp1b1 mRNA ([2]; dose metric Syst plasma (ng/g lipid)): 0.3
Clc1ccc(-c2cc(Cl)c(Cl)cc2Cl)cc1Cl [PCB-118, 2,3´,4,4´,5-pentachlorobiphenyl]				did not induce	< 0.3	0.08±0.01	0.07±0.02	32	2.6	0.054	33	2.2	0.067	2.2	0.062	0.05					
Clc1ccc(-c2cc(Cl)c(Cl)c(Cl)c2)cc1Cl [PCB-126, 3,3´,4,4´,5-pentachlorobiphenyl]	12	11	5.5		> 0.3																Liver:adipose ratio ([1]; dose 5 μg/kg BW): 3.2±0.3; Liver:adipose ratio ([1]; dose 25 μg/kg BW): 5.9±0.9; Liver:adipose ratio ([1]; dose 100 μg/kg BW): 9.1±0.9; Liver % dose / g tissue ([1]; oral dose 5 µg/kg bw): 38 % dose / g tissue; Plasma % dose / g tissue ([1]; oral dose 5 µg/kg bw): 0.035 % dose / g tissue; Liver % dose / g tissue ([1]; oral dose 25 µg/kg bw): 65 % dose / g tissue; Plasma % dose / g tissue ([1]; oral dose 25 µg/kg bw): 0.018 % dose / g tissue; Liver % dose / g tissue ([1]; oral dose 100 µg/kg bw): 51 % dose / g tissue; Plasma % dose / g tissue ([1]; oral dose 100 µg/kg bw): 0.012 % dose / g tissue; Plasma % dose / g tissue ([1]; oral dose 250 µg/kg bw): 0.013 % dose / g tissue; Plasma % dose / g tissue ([1]; oral dose 1000 µg/kg bw): 0.014 % dose / g tissue; Induction of Cyp1b1 mRNA in PBLs, of the maximal induction of TCDD ([2]; highest dose tested, day 3): 3.5%
Clc1cc(Cl)c(-c2cc(Cl)c(Cl)cc2Cl)cc1Cl [PCB-153, 2,2´,4,4´,5,5´-hexachlorobiphenyl]				did not induce	< 0.3	0.11±0.02	0.08±0.03	25	2.5	0.052	25	2.0	0.060		0.050	0.042	0.08±0.02	0.075	23	1.8	
Clc1ccc(-c2cc(Cl)c(Cl)c(Cl)c2Cl)cc1Cl [PCB-156, 2,3,3´,4,4´,5-hexachlorobiphenyl]				did not induce	< 0.3	0.11±0.03	0.12±0.02	22	2.3	0.061	34	4.1	0.066	3.0	0.045	0.037	0.09±0.02	0.079	25	2.2	
